Literature values in PMC10014483 (Bioorganic & Medicinal Chemistry Letters, 2023).

How the values were obtained:
[1] = mice
[2] = tested on: SARS-CoV-2; conditions: transgenic mouse model of SARS-CoV-2 infection, orally effective

CC(C)(C)OC(=O)Nc1cccn([C@@H](CC2CC2)C(=O)N[C@@H](C[C@@H]2CCNC2=O)C(=O)C(=O)NCc2ccccc2)c1=O [Compound 13b]
toxicity [1]: low toxicity

CC1(C)[C@@H]2[C@@H](C(=O)N[C@H](C=O)C[C@@H]3CCNC3=O)N(C(=O)COc3ccc(OC(F)(F)F)cc3)C[C@@H]21 [MI-09]
viral load in the lungs and lung lesions [2]: significantly reduced

CC(C)(C)[C@H](NC(=O)C(F)(F)F)C(=O)N1C[C@H]2[C@@H]([C@H]1C(=O)N[C@H](C#N)C[C@@H]1CCNC1=O)C2(C)C [Nirmatrelvir]
oral bioavailability: unsatisfied
plasma half-life: short
